{"source": "patent US5747540A", "about": "“HIV protease inhibitors useful for the treatment of AIDS” (Merck & Co., Inc., priority 1996, dated 1998)", "key": {"[1]": {"system": "HIV-1 strain IIIb", "assay": "Inhibition of virus spread in HIV-infected MT-4 cells (p24 antigen)", "assay_type": "cell-based", "conditions": "Human immunodeficiency virus 1, MT4, 72 h; HIV-1 IIIb-infected MT-4 cells; 3 days incubation; HIV p24 antigen in supernatant; read-out: CIC95", "protocol": "INHIBITION OF VIRUS SPREAD\nA. Preparation of HIV-infected MT-4 cell Suspension.\nMT cells were infected at Day 0 at a concentration of 250,000 per ml with a 1:1000 dilution of HIV-1 strain IIIb stock (final 125 pg p24/ml; sufficient to yield ≤1% infected cells on day 1 and 25-100% on day 4). Cells were infected and grown in the following medium: RPMI 1640 (Whittaker BioProducts), 10% inactivated fetal bovine serum, 4 mM glutamine (Gibco Labs) and 1:100 Penicillin-Streptomycin (Gibco Labs).\nThe mixture was incubated overnight at 37° C. in 5% CO2 atmosphere.\nB. Treatment with Inhibitors\nA matrix of nanomolar range concentrations of the pairwise combinations was prepared. At Day 1, aliquots of […] of inhibitors were added to equal volumes of HIV-infected MT-4 cells (50,000 per well) in a 96-well microtiter cell culture plate. Incubation was continued for 3 days at 37° C. in 5% CO2 atmosphere.\nC. Measurement of Virus Spread\nUsing a multichannel pipettor, the settled cells were resuspended and […] harvested into a separate microtiter plate. The supernatant was assayed for HIV p24 antigen.\nThe concentration of HIV p24 antigen was measured by an enzyme immunoassay,described as follows. Aliquots of p24 antigen to be measured were added to microwells coated with a monoclonal antibody specific for HIV core antigen. […]"}, "[2]": {"biological_target": "T1, HIV protease (Human immunodeficiency virus type 1 group M subtype B, UniProt P12497)", "T1 construct": "the protease expressed in Eschericia coli; made in house; host or cells: Escherichia coli", "assay": "Assay for inhibition of microbial expressed HIV protease (peptide substrate, HPLC)", "assay_type": "biochemical", "conditions": "protease expressed in Eschericia coli, 50 mM Na acetate, pH 5.5, 30° C., 1 hour", "protocol": "Assay for Inhibition of Microbial Expressed HIV Protease\nInhibition studies of the reaction of the protease expressed in Eschericia coli with a peptide substrate [Val-Ser-Gln-Asn(betanapthyl)Ala-Pro-Ile-Val, 0.5 mg/mL at the time the reaction is initiated] were in 50 mM Na acetate, pH 5.5, at 30° C. for 1 hour. Various concentrations of inhibitor in […] DMSO were added to […] of the peptide solution in water. The reaction is initiated by the addition of […] of 0.33 nM protease (0.11 ng) in a solution of 0.133M Na acetate pH 5.5 and 0.1% bovine serum albumin. The reaction was quenched with 160 ml of 5% phosphoric acid. Products of the reaction were separated by HPLC (VYDAC wide pore 5 cm C-18 reverse phase, acetonitrile gradient, 0.1% phosphoric acid). The extent of inhibition of the reaction was determined from the peak heights of the products."}}, "note": "pIC50: −log10 of the molar value.", "data": [{"smiles": "CC(C)(C)NC(=O)c1ccccc1C[C@@H](O)C[C@@H](Cc1ccccc1)C(=O)N[C@H]1c2ccccc2C[C@H]1O", "note": "[Compound A]", "values": [{"measurement": "IC95", "setting": "[1]", "result": 800, "unit": "nM"}, {"measurement": "pIC50", "setting": "[2]", "result": "8.22 to 9.00"}]}, {"smiles": "CC(C)(C)NS(=O)(=O)c1ccccc1C[C@@H](O)C[C@@H](Cc1ccccc1)C(=O)N[C@H]1c2ccccc2C[C@H]1O", "note": "[Compound B]", "values": [{"measurement": "IC95", "setting": "[1]", "result": 1500, "unit": "nM"}, {"measurement": "pIC50", "setting": "[2]", "result": "8.22 to 9.00"}]}, {"smiles": "Cc1ccc(C[C@@H](O)C[C@@H](Cc2ccccc2)C(=O)N[C@H]2c3ccccc3C[C@H]2O)c(C(=O)NC(C)(C)C)c1", "note": "[Compound C]", "values": [{"measurement": "pIC50", "setting": "[2]", "result": "8.22 to 9.00"}]}]}
